{"source": "ChEMBL document CHEMBL1124317", "about": "“Rationale for the synthesis and preliminary biological evaluation of highly active new antitumor nitrosoureido sugars” (J Med Chem, 1989)", "key": {"Mus musculus [1]": {"tested_on": "Mus musculus", "assay": "The number of L1210 leukemia mice survived after 60 days with compound in aqueous solution injected by a dose of 5 mg/kg intraperitoneally; 6/10", "format": "functional", "details": "route intraperitoneal"}, "Mus musculus [2]": {"tested_on": "Mus musculus", "assay": "The number of L1210 leukemia mice survived after 30 days with compound in aqueous solution injected by a dose of 5 mg/kg intraperitoneally; 6/10", "format": "functional", "details": "route intraperitoneal"}, "[3]": {"assay": "Number of mice died/no of mice treated with 5 mg/kg of compound in aqueous solution intraperitoneally with L1210 leukemia; 0/10", "format": "functional", "details": "route intraperitoneal"}, "Mus musculus [4]": {"species_on_record": "Mus musculus", "assay": "Median survival time of the non surviving mice; there are single deaths on day 20, day 21, day 22, and day 25; four deaths occurred", "format": "functional, organism-based"}, "Mus musculus [5]": {"tested_on": "Mus musculus", "assay": "The number of L1210 leukemia mice survived after 30 days with compound injected by a dose of 10 mg/kg intraperitoneally; 8/8", "format": "functional", "details": "route intraperitoneal"}, "Mus musculus [6]": {"tested_on": "Mus musculus", "assay": "The number of L1210 leukemia mice survived after 60 days with compound in aqueous solution injected by a dose of 5 mg/kg intraperitoneally; 0/10", "format": "functional", "details": "route intraperitoneal"}, "Mus musculus [7]": {"tested_on": "Mus musculus", "assay": "Median survival time of the non surviving mice; treated with 2.5 mg/kg of compound to mice with L1210 leukemia; 11-12", "format": "functional"}, "Mus musculus [8]": {"tested_on": "Mus musculus", "assay": "Anti tumor activity l when treated to mice with L1210 leukemia with 2.5 mg/kg dose of compound intraperitoneally was expressed as percent of treated to control (T/C %)", "format": "functional", "details": "route intraperitoneal"}, "[9]": {"assay": "Mortality range of the mice with L1210 leukemia treated with 10 mg/kg of dose intra peritoneally with no of mice survived/no of mice treated; 0/8", "format": "functional"}, "Mus musculus [10]": {"tested_on": "Mus musculus", "assay": "Median survival time of the non surviving mice; treated with 1.25 mg/kg of compound to mice with L1210 leukemia; 9-11", "format": "functional"}, "Mus musculus [11]": {"tested_on": "Mus musculus", "assay": "Median survival time of the non surviving mice; treated with 5 mg/kg of compound in olive oil to mice with L1210 leukemia; 16-19", "format": "functional"}, "Mus musculus [12]": {"tested_on": "Mus musculus", "assay": "The number of L1210 leukemia mice survived after 30 days with compound injected by a dose of 0.625 mg/kg intraperitoneally; 0/8", "format": "functional", "details": "route intraperitoneal"}, "Mus musculus [13]": {"tested_on": "Mus musculus", "assay": "The number of L1210 leukemia mice survived after 30 days with compound in aqueous solution injected by a dose of 5 mg/kg intraperitoneally; 0/10", "format": "functional", "details": "route intraperitoneal"}, "Mus musculus [14]": {"tested_on": "Mus musculus", "assay": "The number of L1210 leukemia mice survived after 30 days with compound injected by a dose of 2.5 mg/kg intraperitoneally; 0/8", "format": "functional", "details": "route intraperitoneal"}, "Mus musculus [15]": {"tested_on": "Mus musculus", "assay": "Anti tumor activity l when treated to mice with L1210 leukemia with 5 mg/kg dose of compound intraperitoneally was expressed as percent of treated to control (T/C %)", "format": "functional", "details": "route intraperitoneal"}, "[16]": {"assay": "Mortality range of the mice with L1210 leukemia treated with 1.25 mg/kg of dose intraperitoneally with no of mice survived/no of mice treated; 0/8", "format": "functional", "details": "route intraperitoneal"}, "Mus musculus [17]": {"tested_on": "Mus musculus", "assay": "Anti tumor activity in olive oil when treated to mice with L1210 leukemia with 5 mg/kg dose of compound intraperitoneally was expressed as percent of treated to control (T/C %)", "format": "functional", "details": "route intraperitoneal"}, "Mus musculus [18]": {"tested_on": "Mus musculus", "assay": "The number of L1210 leukemia mice survived after 30 days with compound injected by a dose of 5 mg/kg intraperitoneally; 0/8", "format": "functional", "details": "route intraperitoneal"}, "[19]": {"assay": "Mortality range of the mice with L1210 leukemia treated with 2.5 mg/kg of dose intraperitoneally with no of mice survived/no of mice treated; 0/8", "format": "functional", "details": "route intraperitoneal"}, "[20]": {"assay": "Mortality range of the mice with L1210 leukemia treated with 5 mg/kg of dose intraperitoneally with no of mice survived/no of mice treated; 0/8", "format": "functional", "details": "route intraperitoneal"}, "Mus musculus [21]": {"tested_on": "Mus musculus", "assay": "Anti tumor activity l when treated to mice with L1210 leukemia with 0.625 mg/kg dose of compound intraperitoneally was expressed as percent of treated to control (T/C %)", "format": "functional", "details": "route intraperitoneal"}, "Mus musculus [22]": {"tested_on": "Mus musculus", "assay": "Anti tumor activity l when treated to mice with L1210 leukemia with 1.25 mg/kg dose of compound intraperitoneally was expressed as percent of treated to control (T/C %)", "format": "functional", "details": "route intraperitoneal"}, "[23]": {"assay": "Mortality range of the mice with L1210 leukemia treated with 0.625 mg/kg of dose intraperitoneally with no of mice survived/no of mice treated; 0/8", "format": "functional", "details": "route intraperitoneal"}, "Mus musculus [24]": {"tested_on": "Mus musculus", "assay": "Median survival time of the non surviving mice; treated with 0.625 mg/kg of compound to mice with L1210 leukemia; 9-10", "format": "functional"}, "Mus musculus [25]": {"tested_on": "Mus musculus", "assay": "Median survival time of the non surviving mice; treated with 5 mg/kg of compound to mice with L1210 leukemia; 18-24", "format": "functional"}, "Mus musculus [26]": {"tested_on": "Mus musculus", "assay": "The number of L1210 leukemia mice survived after 30 days with compound injected by a dose of 1.25 mg/kg intraperitoneally; 0/8", "format": "functional", "details": "route intraperitoneal"}, "Mus musculus [27]": {"tested_on": "Mus musculus", "assay": "Anti tumor activity in olive oil when treated to mice with Lewis lung with 20 mg/kg dose of compound intraperitoneally was expressed as percent of treated to control (T/C %)", "format": "functional", "details": "route intraperitoneal"}, "Mus musculus [28]": {"tested_on": "Mus musculus", "assay": "The number of Lewis lung mice survived after 60 days with compound in olive oil injected by a dose of 20 mg/kg intraperitoneally; 8/20", "format": "functional", "details": "route intraperitoneal"}, "Mus musculus [29]": {"tested_on": "Mus musculus", "assay": "The number of L1210 Leukemia mice survived after 60 days with compound in olive oil injected by a dose of 20 mg/kg intraperitoneally; 3/15", "format": "functional", "details": "route intraperitoneal"}, "[30]": {"assay": "Ratio of mice died to that of mice treated with 20 mg/kg of compound in olive oil intraperitoneally with L1210 leukemia tumor; 0/15", "format": "functional", "details": "route intraperitoneal"}, "Mus musculus [31]": {"tested_on": "Mus musculus", "assay": "The number of B16 melanocarcinoma mice survived after 30 days with compound in olive oil injected by a dose of 20 mg/kg intraperitoneally; 9/20", "format": "functional", "details": "route intraperitoneal"}, "[32]": {"assay": "Ratio of mice died to that of mice treated with 20 mg/kg of compound in olive oil intraperitoneally with B16 Melanocarcinoma; 0/20", "format": "functional", "details": "route intraperitoneal"}, "Mus musculus [33]": {"tested_on": "Mus musculus", "assay": "Median survival time of the non surviving mice; treated with 20 mg/kg of compound in olive oil to mice with B16 Melanocarcinoma; 23-45", "format": "functional"}, "Mus musculus [34]": {"tested_on": "Mus musculus", "assay": "Median survival time of the non surviving mice; treated with 20 mg/kg of compound in olive oil to mice with Lewis lung; 21-41", "format": "functional"}, "Mus musculus [35]": {"tested_on": "Mus musculus", "assay": "The number of Lewis lung mice survived after 30 days with compound in olive oil injected by a dose of 20 mg/kg intraperitoneally; 13/20", "format": "functional", "details": "route intraperitoneal"}, "Mus musculus [36]": {"tested_on": "Mus musculus", "assay": "The number of B16 melanocarcinoma mice survived after 60 days with compound in olive oil injected by a dose of 20 mg/kg intraperitoneally; 1/20", "format": "functional", "details": "route intraperitoneal"}, "Mus musculus [37]": {"tested_on": "Mus musculus", "assay": "Anti tumor activity in olive oil when treated to mice with B16 melanocarcinoma with 20 mg/kg dose of compound intraperitoneally was expressed as percent of treated to control (T/C %)", "format": "functional", "details": "route intraperitoneal"}, "Mus musculus [38]": {"tested_on": "Mus musculus", "assay": "The number of L1210 Leukemia mice survived after 30 days with compound in olive oil injected by a dose of 20 mg/kg intraperitoneally; 4/15", "format": "functional", "details": "route intraperitoneal"}, "Mus musculus [39]": {"tested_on": "Mus musculus", "assay": "Median survival time of the non surviving mice; treated with 20 mg/kg of compound in olive oil to mice with L1210 leukemia tumor; 21-42", "format": "functional"}, "[40]": {"assay": "Ratio of mice died to that of mice treated with 20 mg/kg of compound in olive oil intraperitoneally with Lewis lung; 0/20", "format": "functional", "details": "route intraperitoneal"}, "Mus musculus [41]": {"tested_on": "Mus musculus", "assay": "Anti tumor activity in olive oil when treated to mice with L1210 leukemia with 20 mg/kg dose of compound intraperitoneally was expressed as percent of treated to control (T/C %)", "format": "functional", "details": "route intraperitoneal"}}, "data": [{"smiles": "CO[C@H]1C[C@@H](NC(=O)N(CCCl)N=O)[C@H](O)[C@@H](CO)O1", "values": [{"measurement": "Survivals", "setting": "Mus musculus [1]", "result": 6}, {"measurement": "Survivals", "setting": "Mus musculus [2]", "result": 6}, {"measurement": "Ratio", "setting": "[3]", "result": 0}, {"measurement": "Number of deaths", "setting": "Mus musculus [4]", "result": 4}]}, {"smiles": "O=NN(CCCl)C(=O)NCCCl", "note": "[CARMUSTINE]", "values": [{"measurement": "Survivals", "setting": "Mus musculus [5]", "result": 8}, {"measurement": "Survivals", "setting": "Mus musculus [6]", "result": 0}, {"measurement": "Median survival time", "setting": "Mus musculus [7]", "result": 11.5}, {"measurement": "T/C", "setting": "Mus musculus [8]", "result": 128, "unit": "%"}, {"measurement": "Ratio", "setting": "[9]", "result": 0}, {"measurement": "Median survival time", "setting": "Mus musculus [10]", "result": 9.9}, {"measurement": "Median survival time", "setting": "Mus musculus [11]", "result": 16.75}, {"measurement": "Survivals", "setting": "Mus musculus [12]", "result": 0}, {"measurement": "Survivals", "setting": "Mus musculus [13]", "result": 0}, {"measurement": "Survivals", "setting": "Mus musculus [14]", "result": 0}, {"measurement": "T/C", "setting": "Mus musculus [15]", "result": 220, "unit": "%"}, {"measurement": "Ratio", "setting": "[16]", "result": 0}, {"measurement": "T/C", "setting": "Mus musculus [17]", "result": 177, "unit": "%"}, {"measurement": "Ratio", "setting": "[3]", "result": 0}, {"measurement": "Survivals", "setting": "Mus musculus [18]", "result": 0}, {"measurement": "Ratio", "setting": "[19]", "result": 0}, {"measurement": "Ratio", "setting": "[20]", "result": 0}, {"measurement": "T/C", "setting": "Mus musculus [21]", "result": 104, "unit": "%"}, {"measurement": "T/C", "setting": "Mus musculus [22]", "result": 110, "unit": "%"}, {"measurement": "Ratio", "setting": "[23]", "result": 0}, {"measurement": "Median survival time", "setting": "Mus musculus [24]", "result": 9.4}, {"measurement": "Median survival time", "setting": "Mus musculus [25]", "result": 19.8}, {"measurement": "Survivals", "setting": "Mus musculus [26]", "result": 0}]}, {"smiles": "COC1CC(O)C(O)C(CNC(=O)N(CCCl)N=O)O1", "note": "(configuration not stated)", "values": [{"measurement": "T/C", "setting": "Mus musculus [27]", "result": 313, "unit": "%"}, {"measurement": "Survivals", "setting": "Mus musculus [28]", "result": 8}, {"measurement": "Survivals", "setting": "Mus musculus [29]", "result": 3}, {"measurement": "Ratio", "setting": "[30]", "result": 0}, {"measurement": "Survivals", "setting": "Mus musculus [31]", "result": 9}, {"measurement": "Ratio", "setting": "[32]", "result": 0}, {"measurement": "Median survival time", "setting": "Mus musculus [33]", "result": 30}, {"measurement": "Median survival time", "setting": "Mus musculus [34]", "result": 39}, {"measurement": "Survivals", "setting": "Mus musculus [35]", "result": 13}, {"measurement": "Survivals", "setting": "Mus musculus [36]", "result": 1}, {"measurement": "T/C", "setting": "Mus musculus [37]", "result": 215, "unit": "%"}, {"measurement": "Survivals", "setting": "Mus musculus [38]", "result": 4}, {"measurement": "Median survival time", "setting": "Mus musculus [39]", "result": 23.5}, {"measurement": "Ratio", "setting": "[40]", "result": 0}, {"measurement": "T/C", "setting": "Mus musculus [41]", "result": 263, "unit": "%"}]}]}
